Test results as given in patent US9328122B2, “7-substituted Hanfangichin B derivative, and preparation method and use thereof” (HANGZHOU BENSHENG PHARMACEUTICAL CO., LTD., priority 2012, dated 2016).
Converted amounts (≈) assume the structure as drawn.

Tests used:
[1] = tested on: H9 (acute lymphoblastic leukemia) cells; test: MTT cell growth inhibition, leukemia cells; format: cell-based, human; conditions: for IC50 / IC90: Homo sapiens, H9, 72 h, MTT; for IC50: read-out: IC50; for IC90: read-out: IC90
In short: (§1)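 Leukemia cells (6000 per well) in RPMI-1640 with 10% FBS were exposed to 7-substituted fangchinoline derivatives at varying concentrations the day after seeding. After 72 h at 37° C., 5% CO2, viable cell concentration was measured by MTT.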

[2] = tested on: Jurkat (acute lymphoblastic leukemia) cells; test: MTT cell growth inhibition, leukemia cells; format: cell-based, human; conditions: for IC50 / IC90: Homo sapiens, Jurkat, 72 h, MTT; for IC50: read-out: IC50; for IC90: read-out: IC90
In short: as §1

[3] = tested on: Kasumi-1 (acute myeloid leukemia M2 type) cells; test: MTT cell growth inhibition, leukemia cells; format: cell-based, human; conditions: Homo sapiens, Kasumi-1, 72 h, MTT; for IC50: read-out: IC50; for IC90: read-out: IC90
In short: as §1

[4] = tested on: RPMI 8226 (multiple myeloma) cells; test: MTT cell growth inhibition, multiple myeloma cells; format: cell-based, human; conditions: Homo sapiens, RPMI 8226, 72 h, MTT; for IC50: read-out: IC50; for IC90: read-out: IC90
In short: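 Viable-cell readout by MTT after 72 h exposure (37° C, 5% CO2) of RPMI 8226 cells to a range of compound concentrations, added one day post-seeding. Cells were seeded at 6000 per well in RPMI-1640 containing 10% FBS.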

[5] = tested on: CNE (nasopharyngeal carcinoma) cells; test: MTT cell growth inhibition, solid tumor cells; format: cell-based, human; conditions: Homo sapiens, CNE, 72 h, MTT; for IC50: read-out: IC50; for IC90: read-out: IC90
In short: (§2)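 In this assay, 6000 tumor cells per well received serially varied compound concentrations after a 24 h settling period in DMEM with 10% FBS. Plates stayed 72 h at 37 °C under 5% CO2, after which MTT quantified surviving cells.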

[6] = tested on: PANC-1 (pancreatic cancer) cells; test: MTT cell growth inhibition, solid tumor cells; format: cell-based, human; conditions: Homo sapiens, PANC-1, 72 h, MTT; for IC50: read-out: IC50; for IC90: read-out: IC90
In short: as §2

[7] = tested on: PC-3 (prostate cancer) cells; test: MTT cell growth inhibition, solid tumor cells; format: cell-based, human; conditions: Homo sapiens, PC-3, 72 h, MTT; for IC50: read-out: IC50; for IC90: read-out: IC90
In short: as §2

[8] = tested on: SK-OV-3 (ovarian cancer) cells; test: MTT cell growth inhibition, solid tumor cells; format: cell-based, human; conditions: Homo sapiens, SK-OV-3, 72 h, MTT; for IC50: read-out: IC50; for IC90: read-out: IC90
In short: as §2

[9] = tested on: A549 (human lung cancer) cells; test: MTT cell growth inhibition, solid tumor cells; format: cell-based; conditions: for IC50 / IC90: Homo sapiens, A549, 72 h, MTT; for IC50: read-out: IC50; for IC90: read-out: IC90
In short: as §2

[10] = tested on: Becap-37 (human breast cancer) cells; test: MTT cell growth inhibition, solid tumor cells; format: cell-based; conditions: Homo sapiens, Becap-37, 72 h, MTT; for IC50: read-out: IC50; for IC90: read-out: IC90
In short: as §2

[11] = tested on: Hela (human cervical cancer) cells; test: MTT cell growth inhibition, solid tumor cells; format: cell-based; conditions: Homo sapiens, Hela, 72 h, MTT; for IC50: read-out: IC50; for IC90: read-out: IC90
In short: as §2

[12] = tested on: Hep G2 (human liver cancer) cells; test: MTT cell growth inhibition, solid tumor cells; format: cell-based; conditions: Homo sapiens, HepG2, Hep G2, 72 h, MTT; for IC50: read-out: IC50; for IC90: read-out: IC90
In short: as §2

[13] = tested on: Hep-2 (laryngeal carcinoma) cells; test: MTT cell growth inhibition, solid tumor cells; format: cell-based; conditions: Homo sapiens, Hep-2, 72 h, MTT; for IC50: read-out: IC50; for IC90: read-out: IC90
In short: as §2

[14] = tested on: MG-63 (osteosarcoma) cells; test: MTT cell growth inhibition, solid tumor cells; format: cell-based; conditions: Homo sapiens, MG-63, 72 h, MTT; for IC50: read-out: IC50; for IC90: read-out: IC90
In short: as §2

[15] = tested on: MGC-803 (human gastric cancer) cells; test: MTT cell growth inhibition, solid tumor cells; format: cell-based; conditions: MGC-803, 72 h, MTT; for IC50: read-out: IC50; for IC90: read-out: IC90
In short: as §2

[16] = tested on: RKO (human colon adenocarcinoma) cells; test: MTT cell growth inhibition, solid tumor cells; format: cell-based; conditions: Homo sapiens, RKO, 72 h, MTT; for IC50: read-out: IC50; for IC90: read-out: IC90
In short: as §2

[17] = tested on: U87-MG (malignant glioma) cells; test: MTT cell growth inhibition, solid tumor cells; format: cell-based; conditions: Homo sapiens, U-87 MG, U87-MG, 72 h, MTT; for IC50: read-out: IC50; for IC90: read-out: IC90
In short: as §2

tumor = test: Antitumor activity compared with fangchinoline, overall statement; format: cell-based; conditions: tumor type not specified
[18] = relative to fangchinoline, Table 1

SMILES: COc1ccc2cc1Oc1ccc(cc1)C[C@H]1c3cc(c(OC)cc3CCN1C)Oc1c(OC(=O)c3ccc(N(C)C)cc3)c(OC)cc3c1[C@H](C2)N(C)CC3 [BS-FC-308]
- IC50 [1]: 0.7 µg/mL (≈ 0.926 µM)
- IC90 [1]: 1.8 µg/mL (≈ 2.38 µM)
- anti-H9 activity increase over fangchinoline [1, 18]: > 3 fold
- IC50 [2]: 0.36 µg/mL (≈ 0.476 µM)
- IC90 [2]: 1.62 µg/mL (≈ 2.14 µM)
- anti-Jurkat activity increase over fangchinoline [2, 18]: more than 4 fold
- IC50 [3]: 0.81 µg/mL (≈ 1.07 µM)
- IC90 [3]: 1.9 µg/mL (≈ 2.51 µM)
- IC50 [4]: 0.12 µg/mL (≈ 0.159 µM)
- IC90 [4]: 0.25 µg/mL (≈ 0.331 µM)
- IC50 [5]: 1.9 µg/mL (≈ 2.51 µM)
- IC90 [5]: 3.6 µg/mL (≈ 4.76 µM)
- IC50 [6]: 2.38 µg/mL (≈ 3.15 µM)
- IC90 [6]: 8.53 µg/mL (≈ 11.3 µM)
- IC50 [7]: 2.4 µg/mL (≈ 3.17 µM)
- IC90 [7]: 3.49 µg/mL (≈ 4.62 µM)
- IC50 [8]: 1.31 µg/mL (≈ 1.73 µM)
- IC90 [8]: 1.93 µg/mL (≈ 2.55 µM)
- IC50 [9]: 0.99 µg/mL (≈ 1.31 µM)
- IC90 [9]: 3.16 µg/mL (≈ 4.18 µM)
- anti-A549 activity increase over fangchinoline ([9]; relative to fangchinoline, Table 2): more than 3 fold
- IC50 [10]: 1.03 µg/mL (≈ 1.36 µM)
- IC90 [10]: 1.95 µg/mL (≈ 2.58 µM)
- IC50 [11]: 0.89 µg/mL (≈ 1.18 µM)
- IC90 [11]: 1.9 µg/mL (≈ 2.51 µM)
- IC50 [12]: 1.12 µg/mL (≈ 1.48 µM)
- IC90 [12]: 4.35 µg/mL (≈ 5.75 µM)
- IC50 [13]: 3.08 µg/mL (≈ 4.07 µM)
- IC90 [13]: 6.05 µg/mL (≈ 8 µM)
- IC50 [14]: 1.3 µg/mL (≈ 1.72 µM)
- IC90 [14]: 1.8 µg/mL (≈ 2.38 µM)
- IC50 [15]: 0.57 µg/mL (≈ 0.754 µM)
- IC90 [15]: 1.99 µg/mL (≈ 2.63 µM)
- IC50 [16]: 0.71 µg/mL (≈ 0.939 µM)
- IC90 [16]: 1.51 µg/mL (≈ 2 µM)
- IC50 [17]: 1.27 µg/mL (≈ 1.68 µM)
- IC90 [17]: 3.75 µg/mL (≈ 4.96 µM)
- antitumor activity compared with that of fangchinoline (tumor): significantly superior

SMILES: COc1ccc2cc1Oc1ccc(cc1)C[C@H]1c3cc(c(OC)cc3CCN1C)Oc1c(OC(=O)C3CC3)c(OC)cc3c1[C@H](C2)N(C)CC3 [BS-FC-304]
- IC50 [1]: 3.6 µg/mL (≈ 5.32 µM)
- IC90 [1]: 7.05 µg/mL (≈ 10.4 µM)
- IC50 [2]: 0.81 µg/mL (≈ 1.2 µM)
- IC90 [2]: 2.94 µg/mL (≈ 4.34 µM)
- IC50 [3]: 1.54 µg/mL (≈ 2.28 µM)
- IC90 [3]: 3.94 µg/mL (≈ 5.82 µM)
- IC50 [4]: 0.16 µg/mL (≈ 0.236 µM)
- IC90 [4]: 0.98 µg/mL (≈ 1.45 µM)
- IC50 [5]: 3.8 µg/mL (≈ 5.61 µM)
- IC90 [5]: 7.2 µg/mL (≈ 10.6 µM)
- IC50 [6]: 3.73 µg/mL (≈ 5.51 µM)
- IC90 [6]: 10.4 µg/mL (≈ 15.4 µM)
- IC50 [7]: 4.02 µg/mL (≈ 5.94 µM)
- IC90 [7]: 10.5 µg/mL (≈ 15.5 µM)
- IC50 [8]: 6.45 µg/mL (≈ 9.53 µM)
- IC90 [8]: 15.4 µg/mL (≈ 22.7 µM)
- IC50 [9]: 2.24 µg/mL (≈ 3.31 µM)
- IC90 [9]: 5.59 µg/mL (≈ 8.26 µM)
- IC50 [10]: 3.15 µg/mL (≈ 4.65 µM)
- IC90 [10]: 7.22 µg/mL (≈ 10.7 µM)
- IC50 [11]: 1.87 µg/mL (≈ 2.76 µM)
- IC90 [11]: 4.65 µg/mL (≈ 6.87 µM)
- IC50 [12]: 2.49 µg/mL (≈ 3.68 µM)
- IC90 [12]: 9.42 µg/mL (≈ 13.9 µM)
- IC50 [13]: 4.95 µg/mL (≈ 7.31 µM)
- IC90 [13]: 12.2 µg/mL (≈ 18.1 µM)
- IC50 [14]: 2.32 µg/mL (≈ 3.43 µM)
- IC90 [14]: 5.72 µg/mL (≈ 8.45 µM)
- IC50 [15]: 1.87 µg/mL (≈ 2.76 µM)
- IC90 [15]: 10.2 µg/mL (≈ 15.1 µM)
- IC50 [16]: 1.79 µg/mL (≈ 2.64 µM)
- IC90 [16]: 3.45 µg/mL (≈ 5.1 µM)
- IC50 [17]: 1.68 µg/mL (≈ 2.48 µM)
- IC90 [17]: 4.97 µg/mL (≈ 7.34 µM)
- antitumor activity compared with that of fangchinoline (tumor): significantly superior
